Test results as given in patent publication US7115635B2, “Benzylpiperidine compound” (Mitsubishi Pharma Corporation, priority 2001, dated 2006).
pIC50: −log10 of the molar value. Structures can show the parent of a compound that is named as a salt.

Experiments:
human eosinophil = assay: Binding inhibitory activity between chemokine ([125I]-eotaxin) and human eosinophil; settings: 50 pmol/L [125I]-eotaxin, human eosinophil 2x10^5, 25 C, 1 hr; read-out: IC50 (concentration necessary for decreasing the binding between [125I]-eotaxin and human eosinophil by 50%)
Experimental: Human eosinophil was separated from the anticoagulation treated peripheral blood of a healthy subject by CD16 negative selection method (e.g., J. Immunol. Methods, vol., 145, pp. 105–110, 1991). The separated eosinophil (2×10^5), 50 pmol/L [^125I]-eotaxin (2000 Ci/mmoL, manufactured by AmershamPharmacia Biotech) and a test compound were mixed in 0.1 mL of a binding buffer (50 mmol/L HEPES, 1 mmol/L CaCl2, 5 mmol/L MgCl2, 0.5% bovine serum albumin (BSA), 0.1% sodium azide, pH 7.6), and the mixture was incubated at 25° C. for 1 hr in a multiscreen plate (manufactured by Millipore Corporation). After the completion of the incubation, the reaction mixture in the multiscreen plate was filtered in vacuo and washed with 0.6 mL of a cold washing buffer (50 mmol/L HEPES, 1 mmol/L CaCl2, 5 mmol/L MgCl2, 0.5 mol/L NaCl, 0.1% sodium azide, pH 7.6), and the radioactivity on the filter was measured. […] The IC50 values (concentration of a test compound necessary for decreasing the binding between [^125 I]-eotaxin and human eosinophil by 50%) of some of the compounds of the present invention were as follows.

CCR3 = target: T1, CCR3 (Homo sapiens, UniProt P51677); assay: Effect on intracellular calcium concentration in eosinophil on stimulation with CCL11; format: cell-based; settings: human peripheral blood eosinophil, agonist CCL11 0.3 nmol/L, compound 5 min before stimulation, Fura-2 AM; read-out: IC50 of the increase in the intracellular calcium concentration
T1 construct: Eosinophil separated from the peripheral blood of a healthy subject; endogenous in cells; host or cells: eosinophils from peripheral blood of a healthy subject
T1 sequence (P51677 1-355): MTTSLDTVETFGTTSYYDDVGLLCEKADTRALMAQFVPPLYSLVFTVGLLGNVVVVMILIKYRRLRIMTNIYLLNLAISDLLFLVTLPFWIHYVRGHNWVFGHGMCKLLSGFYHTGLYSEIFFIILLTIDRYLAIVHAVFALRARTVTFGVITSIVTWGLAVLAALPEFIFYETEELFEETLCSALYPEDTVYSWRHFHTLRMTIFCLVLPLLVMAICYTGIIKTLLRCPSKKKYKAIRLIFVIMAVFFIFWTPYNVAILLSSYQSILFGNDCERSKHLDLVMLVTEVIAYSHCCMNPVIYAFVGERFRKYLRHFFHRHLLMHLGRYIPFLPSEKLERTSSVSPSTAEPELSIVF
Experimental: The effect of the compound of the present invention on intracellular calcium in eosinophil in the peripheral blood of a healthy subject on stimulation with CCL11 was elavuated by the following method.
Eosinophil separated from the peripheral blood of a healthy subject was suspended in a buffer for measurement (10 mmol/L HEPES, and 0.5% bovine serum albumin-containing hanks' balanced salt solution), and the suspension was incubated in the presence of 5 μmol/L of Fura-2 AM (manufactured by Dojindo Laboratories) at 37° C. for 45 min. After the completion of incubation, the cells were washed three times with the buffer for measurement to remove Fura-2 AM not-incorporated into the cells.
The cell suspension was adjusted to the final concentration of 1×10^6 cells/mL with the buffer for measurement and preserved in a dark place until measurement. The intracellular calcium was measured using FDSS6000 manufactured by Hamamatsu Photonics K.K. That is, a cell suspension (0.1 mL) loaded with Fura-2 AM was placed in a 96 well plate for measurement, and the plate was set on FDSS6000. The fluorescence intensities due to excitation lights at wavelengths 340 nm and 380 nm were measured. The ratio of the fluorescence intensities corresponding to the excitation lights at these two wavelengths was determined to calculate the intracellular calcium concentration. […]

[1] = Measurement of blood (plasma) concentration; format: in vivo; settings: female rat, LC/MS, administered orally and intravenously (route and dose for Cmax not stated)
Experimental: The compound of the present invention was administered orally and intravenously to female rat, and the plasma concentration of the compound was measured. That is, the test compound was weighed, dissolved or suspended in a medium, diluted to the objective concentration, and orally and intravenously administered. After the administration, the blood was drawn with time from the cervical vein with a heparin treated syringe. The blood was centrifuged, the plasma was separated, and the plasma was preserved at −20° C. until analysis. The concentration of the compound in plasma was measured using LC/MS. The results are shown in the following [Table 3].

Row | pIC50 (human eosinophil) | pIC50 (CCR3) | Cmax [1] | SMILES
1 | 8.22 |  |  | N=C(N)Nc1nc(-c2ccc(CCCCC(=O)NC3CCN(Cc4ccc(Cl)c(Cl)c4)CC3)cc2)cs1 [Example 1, N-[1-(3,4-dichlorobenzyl)piperidin-4-yl]-5-[4-(2-guanidinothiazol-4-yl)phenyl]valeramide]
2 | 7.96 |  |  | Nc1ccc(-c2csc(SCC(=O)NC3CCN(Cc4ccc(Cl)c(Cl)c4)CC3)n2)cc1 [Example 6, [4-(4-aminophenyl)thiazol-2-ylthio]-N-[1-(3,4-dichlorobenzyl)piperidin-4-yl]acetamide]
3 | 8.40 | 8.22 |  | N=C(N)Nc1nc(-c2ccc(OCCCC(=O)NC3CCN(Cc4ccc(Cl)c(Cl)c4)CC3)cc2)cs1 [Example 9, N-[1-(3,4-dichlorobenzyl)piperidin-4-yl]-4-[4-(2-guanidinothiazol-4-yl)phenyloxy]butylamide ½ fumarate ¼ hydrate]
4 |  |  | 3120 ng/mL | Nc1cccc(-c2csc(SCC(=O)NC3CCN(Cc4ccc(Cl)c(Cl)c4)CC3)n2)c1 [Example 35, [4-(3-aminophenyl)thiazol-2-ylthio]-N-[1-(3,4-dichlorobenzyl)piperidin-4-yl]acetamide]
